Laboratory results from patent US20240327372A1, “PREPARATION OF PHENE[…] […] STEREOISOMERS THEREOF AND PRECURSORS THEREOF” (priority 2022, published 2024).

How the values were obtained:
SERT = SERT (Rattus norvegicus (Rat), UniProt P31652); test: [3H]5-HT uptake inhibition in rat brain synaptosomes; type: biochemical
Protocol: (§1) Materials used were: Neurotransmitters [3H]5-HT (PerkinElmer, NET498001MC) [^3H]Dopamine (PerkinElmer, NET673250UC) [^3H]Norepinephrine (PerkinElmer, NET377250UC); Test Compounds Racemic methylone HCl (Merck, M-140); (R)-methylone HCl (Pisgah Labs); (S)-methylone HCl (Pisgah Labs); Reference Compounds Citalopram (Tocris Bioscience 1427). JHW007 (Tocris Bioscience 4351). Nomifensine (Abcam ab146004).
(§2) Synaptosomes were prepared from Sprague Dawley (200-250 g) rat brain regions (hippocampus for NE, striatum for DA and midbrain for 5-HT) using standard protocols. Tissues were dissected, added to sucrose buffer (0.32 M), homogenized with a dounce-homogenizer and centrifuged at 100×g to remove cells and debris. Supernatant was collected and centrifuged 17,000×g for 10 minutes at 4° C. to pellet the synaptosomes. The pellet was resuspended in fresh assay buffer.
(§3) Uptake assays were carried out in 96-well plates in a final volume of 250 μL per well. To each well was added 150 μL synaptosomes, 50 μL test, non-specific compound or buffer alone. The plate was incubated at 30° C. for 30 minutes with gentle agitation. 50 μL radiolabeled neurotransmitter in buffer was then added to each well to initiate the uptake. The plate was incubated at 30° C. for a further 5 minutes with gentle agitation. The incubation was stopped by vacuum filtration onto presoaked GF/C filters using a 96-well FilterMate™ harvester, followed by 3 washes with ice-cold wash buffer. Filters were then dried under a warm air stream, sealed in polyethylene, scintillation cocktail added, and the radioactivity counted in a Wallac® TriLux 1450 MicroBeta counter.
(§4) For each concentration of drug, non-specific uptake was subtracted from total uptake to give specific uptake. Data was fitted using the non-linear curve fitting routines in Prism® (Graphpad Software Inc) to determine IC50.

DAT = DAT (Rattus norvegicus (Rat), UniProt P23977); test: [3H]Dopamine uptake inhibition in rat brain synaptosomes; type: biochemical; conditions: DA
Protocol: as §1, §2, §3, §4

hNav1.5 = hNav1.5 (Homo sapiens (Human), UniProt Q14524); test: hNav1.5 Sodium Channel Assay (peak), Qube APC; type: cell-based; conditions: Nav1.5, Antagonist mode, test compound
Protocol: (§5) Where presented, IC50 values were determined by a non-linear, least squares regression analysis.
(§6) Recombinant HEK-293 cells stably transfected with human Nav1.5 cDNA, recombinant HEK293 cell line expressing the human Cav1.2 (L-type voltage gated calcium channel, hCav1.2 α1C/β2a/α2δ1, and recombinant CHO-K1 cells stably transfected with human hERG cDNA were used separately in each of these assays.
hNav1.5 Sodium Channel Assay—Qube APC Onset and steady state block of peak Nav1.5 current is measured using a pulse pattern, repeated every 5 sec, consisting of a hyperpolarizing pulse to −120 mV for a 200 ms duration, depolarization to −15 mV amplitude for a 40 ms duration, followed by step to 40 mV for 200 ms and finally a 100 ms ramp (1.2 V/s) to a holding potential of −80 mV. Peak current is measured during the step to −15 mV.

hKv4.3/hKChIP2 = hKv4.3/hKChIP2 (Homo sapiens (Human), UniProt Q9UK17); test: hKv4.3/hKChIP2 Potassium Channel Assay, Qube APC; type: cell-based; conditions: Kc4.3/ChIP2, Antagonist mode, test compound
Protocol: (§7) Electrophysiological assays were conducted to profile three compounds ((R)-methylone, (S)-methylone, or racemic methylone) for activities on the ion channel targets specified below using the Qube electrophysiological platform. Where presented, IC50 values were determined by a non-linear, least squares regression analysis. Reference standards were run as an integral part of each assay to ensure the validity of the results obtained.
(§8) Ion Channels tested were Eurofins Panel Part Number: CPROFullQB2DR Voltage-Gated Sodium: HEK-Nav1.5 (Peak), HEK-Nav1.5 (Late, Antagonist) Voltage-Gated Potassium: HEK-Kv4.3/KChIP2, CHO-hERG, CHO-KCNQ1/minK Voltage-Gated Calcium: HEK-Cav1.2 Inward-Rectifying Voltage-Gated Potassium: HEK-Kir2.1.
hKv4.3/hKChIP2 Potassium Channel Assay—Qube APC After whole cell configuration is achieved, the cells are held at −80 mV. Onset and steady state block of hKv4.3 current is measured using a pulse pattern from −80 mV to 40 mV amplitude for a 110 ms duration, and finally a 100 ms ramp (1.2 V/s) to −80 mV. This paradigm is delivered once every 5 s to monitor the current amplitude.

hCav1.2 = hCav1.2 (Homo sapiens (Human), UniProt Q13936); test: hCav1.2 (L-type) Calcium Channel Assay, Qube APC; type: cell-based; conditions: Cav1.2, Antagonist mode, test compound
hCav1.2, sequence (Q13936 whole entry, looked up): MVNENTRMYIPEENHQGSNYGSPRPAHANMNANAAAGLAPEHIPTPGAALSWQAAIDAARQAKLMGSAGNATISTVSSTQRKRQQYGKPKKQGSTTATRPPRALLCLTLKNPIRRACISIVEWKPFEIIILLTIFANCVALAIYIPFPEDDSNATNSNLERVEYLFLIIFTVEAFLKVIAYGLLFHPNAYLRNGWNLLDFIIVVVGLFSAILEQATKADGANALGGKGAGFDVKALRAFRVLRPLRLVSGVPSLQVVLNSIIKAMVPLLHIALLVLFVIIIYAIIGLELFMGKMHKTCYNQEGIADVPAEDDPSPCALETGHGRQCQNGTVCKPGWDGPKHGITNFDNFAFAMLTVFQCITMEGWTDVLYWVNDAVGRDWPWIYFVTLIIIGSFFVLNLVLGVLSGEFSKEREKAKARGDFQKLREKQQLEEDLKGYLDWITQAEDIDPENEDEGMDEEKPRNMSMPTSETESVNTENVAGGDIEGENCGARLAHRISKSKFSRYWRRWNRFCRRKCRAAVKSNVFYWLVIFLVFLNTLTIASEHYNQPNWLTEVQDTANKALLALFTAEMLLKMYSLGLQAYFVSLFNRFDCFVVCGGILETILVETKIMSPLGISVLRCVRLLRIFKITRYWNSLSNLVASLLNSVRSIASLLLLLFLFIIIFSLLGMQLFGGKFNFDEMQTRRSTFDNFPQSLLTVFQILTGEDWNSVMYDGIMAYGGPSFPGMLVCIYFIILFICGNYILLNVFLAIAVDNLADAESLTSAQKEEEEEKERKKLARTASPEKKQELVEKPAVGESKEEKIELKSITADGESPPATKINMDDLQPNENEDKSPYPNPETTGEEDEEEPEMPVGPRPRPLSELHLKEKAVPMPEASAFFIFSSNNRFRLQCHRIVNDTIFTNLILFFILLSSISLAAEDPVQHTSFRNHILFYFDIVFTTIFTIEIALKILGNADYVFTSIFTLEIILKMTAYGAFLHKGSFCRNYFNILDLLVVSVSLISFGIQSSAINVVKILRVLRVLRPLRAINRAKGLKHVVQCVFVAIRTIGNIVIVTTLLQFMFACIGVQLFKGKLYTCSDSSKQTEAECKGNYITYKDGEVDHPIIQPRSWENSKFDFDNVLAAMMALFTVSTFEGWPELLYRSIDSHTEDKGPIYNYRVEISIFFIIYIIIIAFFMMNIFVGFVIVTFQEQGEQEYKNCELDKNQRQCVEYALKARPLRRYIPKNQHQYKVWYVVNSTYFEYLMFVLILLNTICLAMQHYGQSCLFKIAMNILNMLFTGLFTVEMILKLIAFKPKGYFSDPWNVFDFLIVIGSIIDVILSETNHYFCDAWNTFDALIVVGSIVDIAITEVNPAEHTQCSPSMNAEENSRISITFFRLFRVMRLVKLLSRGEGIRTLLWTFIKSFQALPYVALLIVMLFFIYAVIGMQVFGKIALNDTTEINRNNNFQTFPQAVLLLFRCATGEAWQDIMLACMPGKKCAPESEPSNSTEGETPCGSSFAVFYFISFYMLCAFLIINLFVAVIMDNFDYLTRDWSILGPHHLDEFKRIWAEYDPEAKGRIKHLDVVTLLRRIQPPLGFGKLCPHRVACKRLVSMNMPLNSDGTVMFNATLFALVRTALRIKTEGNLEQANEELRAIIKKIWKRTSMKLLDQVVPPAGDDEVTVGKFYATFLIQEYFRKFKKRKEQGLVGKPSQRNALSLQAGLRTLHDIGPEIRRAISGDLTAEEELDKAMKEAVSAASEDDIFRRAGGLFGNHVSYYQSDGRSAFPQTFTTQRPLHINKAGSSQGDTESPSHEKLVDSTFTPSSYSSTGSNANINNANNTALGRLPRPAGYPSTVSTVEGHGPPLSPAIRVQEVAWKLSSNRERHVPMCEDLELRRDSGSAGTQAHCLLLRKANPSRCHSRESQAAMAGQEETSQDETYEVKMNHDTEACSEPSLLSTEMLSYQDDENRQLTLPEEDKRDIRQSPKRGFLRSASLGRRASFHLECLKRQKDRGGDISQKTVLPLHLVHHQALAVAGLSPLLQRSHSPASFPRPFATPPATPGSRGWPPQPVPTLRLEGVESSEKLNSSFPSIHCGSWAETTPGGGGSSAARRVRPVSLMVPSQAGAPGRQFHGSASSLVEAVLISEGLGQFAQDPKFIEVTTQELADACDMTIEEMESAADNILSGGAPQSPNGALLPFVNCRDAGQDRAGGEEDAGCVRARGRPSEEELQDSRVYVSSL
hCav1.2, sequence (Q08289 whole entry partner, looked up): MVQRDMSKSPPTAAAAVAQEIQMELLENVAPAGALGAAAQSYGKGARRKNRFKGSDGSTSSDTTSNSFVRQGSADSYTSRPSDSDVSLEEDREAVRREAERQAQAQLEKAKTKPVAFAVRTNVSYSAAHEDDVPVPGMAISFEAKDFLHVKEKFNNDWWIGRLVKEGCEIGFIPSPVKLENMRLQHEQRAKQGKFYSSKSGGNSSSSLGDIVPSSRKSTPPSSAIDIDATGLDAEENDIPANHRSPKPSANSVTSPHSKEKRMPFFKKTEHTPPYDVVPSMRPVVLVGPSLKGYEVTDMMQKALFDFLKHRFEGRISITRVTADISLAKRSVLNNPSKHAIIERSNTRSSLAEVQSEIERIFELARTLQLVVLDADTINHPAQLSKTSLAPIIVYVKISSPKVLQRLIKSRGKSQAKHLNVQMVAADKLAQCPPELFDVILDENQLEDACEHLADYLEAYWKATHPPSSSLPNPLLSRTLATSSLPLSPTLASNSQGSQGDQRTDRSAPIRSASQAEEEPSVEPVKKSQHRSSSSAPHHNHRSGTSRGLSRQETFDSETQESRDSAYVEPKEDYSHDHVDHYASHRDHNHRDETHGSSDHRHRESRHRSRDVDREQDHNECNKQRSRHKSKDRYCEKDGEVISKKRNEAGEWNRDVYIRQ
hCav1.2, sequence (P54289 whole entry partner, looked up): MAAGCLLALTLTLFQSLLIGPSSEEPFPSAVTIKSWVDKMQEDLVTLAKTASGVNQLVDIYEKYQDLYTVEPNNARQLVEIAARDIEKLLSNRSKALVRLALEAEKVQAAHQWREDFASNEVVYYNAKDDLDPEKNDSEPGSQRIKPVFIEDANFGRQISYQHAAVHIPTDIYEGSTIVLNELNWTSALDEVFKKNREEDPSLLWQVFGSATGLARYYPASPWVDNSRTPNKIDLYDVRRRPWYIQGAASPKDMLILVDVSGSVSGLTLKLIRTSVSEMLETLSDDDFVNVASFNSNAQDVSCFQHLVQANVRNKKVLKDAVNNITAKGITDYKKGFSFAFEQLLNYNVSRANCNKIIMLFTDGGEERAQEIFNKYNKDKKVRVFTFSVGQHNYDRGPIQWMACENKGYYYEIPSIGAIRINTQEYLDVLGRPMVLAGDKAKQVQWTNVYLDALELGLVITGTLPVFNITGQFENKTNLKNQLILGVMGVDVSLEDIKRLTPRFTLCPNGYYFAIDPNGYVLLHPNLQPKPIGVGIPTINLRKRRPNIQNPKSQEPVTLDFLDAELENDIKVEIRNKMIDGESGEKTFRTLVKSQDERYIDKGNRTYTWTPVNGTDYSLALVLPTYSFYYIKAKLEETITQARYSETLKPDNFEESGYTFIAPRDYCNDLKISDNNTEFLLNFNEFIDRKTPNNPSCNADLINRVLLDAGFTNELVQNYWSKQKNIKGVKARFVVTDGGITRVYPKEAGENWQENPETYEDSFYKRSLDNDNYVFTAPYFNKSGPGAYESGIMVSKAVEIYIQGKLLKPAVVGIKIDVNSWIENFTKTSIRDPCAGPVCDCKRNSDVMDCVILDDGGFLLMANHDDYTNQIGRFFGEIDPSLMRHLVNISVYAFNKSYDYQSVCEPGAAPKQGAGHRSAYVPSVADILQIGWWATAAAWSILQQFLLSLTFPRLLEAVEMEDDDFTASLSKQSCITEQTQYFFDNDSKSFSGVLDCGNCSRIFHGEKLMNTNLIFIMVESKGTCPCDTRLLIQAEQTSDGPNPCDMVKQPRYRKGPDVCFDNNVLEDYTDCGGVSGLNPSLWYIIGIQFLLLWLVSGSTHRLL
hCav1.2, sequence (P54289 whole entry partner, looked up): as above
Protocol: as §5, §6
hCav1.2 (L-type) Calcium Channel Assay—Qube APC After whole cell configuration is achieved, the cells are held at −90 mV. Cav1.2 currents are evoked by a 50 ms pulse to −100 mV followed by a 200 ms pulse to +20 mV before returning to the holding potential of −90 mV. This paradigm is delivered three times every 60 s to monitor the current amplitude.

hNav1.5 Late Current = hNav1.5 Late Current (Homo sapiens (Human), UniProt Q14524); test: hNav1.5 Late Current Sodium Channel Assay, Qube APC; type: cell-based; conditions: Nav1.5 Late Current, Antagonist mode, test compound
Protocol: as §7, §8
hNav1.5 Late Current Sodium Channel Assay—Qube APC Onset and steady state block of Late Nav1.5 current is measured using a pulse pattern, repeated every 5 sec, consisting of a hyperpolarizing pulse to −120 mV for a 200 ms duration, depolarization to −15 mV amplitude for a 40 ms duration, followed by step to 40 mV for 200 ms and finally a 100 ms ramp (1.2 V/s) to a holding potential of −80 mV. Late current is measured as charge current elicited during the ramp with 50 nM ATXII.

hKir2.1 = hKir2.1 (Homo sapiens (Human), UniProt P63252); type: cell-based; conditions: Kir2.1, Antagonist mode, test compound
Protocol: as §7, §8
hKir2.1 Potassium Channel Assay—Qube APC After whole cell configuration is achieved, the cells are held at −30 mV. Kir2.1 currents are evoked by a single 500 ms pulse to −120 mV before returning to the holding potential of −30 mV. This paradigm is delivered once every 20 s to monitor the current amplitude.

cardiac ion channels = test: In vitro cardiovascular safety screening test (ion channel panel, overall); type: cell-based, human; conditions: whole panel
Protocol: An in vitro cardiovascular safety screening test was run to investigate the effects of racemic methylone and two methylone stereoisomers ((R)-methylone and (S)-methylone) on selected ion channels critically linked to cardiovascular function and activity.
as §7, §8

## CN[C@@H](C)C(=O)c1ccc2c(c1)OCO2 [(S)-methylone]
SERT
  IC50: 395 nM
DAT
  IC50: 634 nM
hNav1.5
  Estimated IC50: N/C (N/C indicates observed mean inhibition was <25%)
hKv4.3/hKChIP2
  Estimated IC50: N/C (N/C indicates observed mean inhibition was <25%)
hCav1.2
  Estimated IC50: N/C (N/C indicates observed mean inhibition was <25%)
hNav1.5 Late Current
  Estimated IC50: N/C (N/C indicates observed mean inhibition was <25%)
hKir2.1
  Estimated IC50: N/C (N/C indicates observed mean inhibition was <25%)
Cardiac ion channels
  Effect on the cardiac ion channels tested: do not directly inhibit the activity of cardiac channels

## CN[C@H](C)C(=O)c1ccc2c(c1)OCO2 [(R)-methylone]
SERT
  IC50: 7620 nM
DAT
  IC50: 3440 nM
hNav1.5
  Estimated IC50: N/C (N/C indicates observed mean inhibition was <25%)
hKv4.3/hKChIP2
  Estimated IC50: N/C (N/C indicates observed mean inhibition was <25%)
hCav1.2
  Estimated IC50: N/C (N/C indicates observed mean inhibition was <25%)
hNav1.5 Late Current
  Estimated IC50: N/C (N/C indicates observed mean inhibition was <25%)
hKir2.1
  Estimated IC50: N/C (N/C indicates observed mean inhibition was <25%)
Cardiac ion channels
  Effect on the cardiac ion channels tested: do not directly inhibit the activity of cardiac channels
